Experimental data published in patent US6391876B1 (Pharmacia and Upjohn Company, priority 1998, dated 2002).

Tests used:
I-adrenerigic receptors = assay: interaction with I-adrenerigic receptors; type: binding
[1] = test system: patients with panic Disorder with or without Agoraphobia
[2] = in vivo; cited from earlier work
norepinephrine uptake = test system: norepinephrine uptake
Excerpt: (§1) Leonard-BE, “Noradrenaline in basic models of depression.” European-Neuropsychopharmacol. April 1997; 7 Suppl 1: S11-6; discussion S71-3.

serotonin uptake = test system: serotonin uptake
Excerpt: as §1

monoamine oxidase (MAO) = test system: monoamine oxidase (MAO)
Excerpt: as §1

dopamine uptake = test system: dopamine uptake
Excerpt: as §1

[3] = test system: muscarinic cholinergic receptors; assay: interaction with muscarinic cholinergic receptors; type: binding
[4] = test system: patients with a DSM-III-R diagnosis of Obsessive Compulsive Disorder; assay: trial in patients with Obsessive Compulsive Disorder; type: in vivo, human; conditions: 10 OCD patients, 3 to 4 weeks, 6 mg first week then 8 mg per day
[5] = vs placebo, at some point in time

## CCOc1ccccc1OC(c1ccccc1)C1CNCCO1 (stereo not drawn) [reboxetine]
I-adrenerigic receptors
  interaction with I-adrenerigic receptors: without showing any appreciable interaction
[1]; 37 patients on reboxetine vs 38 on placebo
  mean number of major panic attacks: significantly lower than for those on placebo
[1]; [5]
  anticipatory anxiety: better
  phobic symptoms: better
  social and family adjustment: better
[2]
  effect in the 8-OH-DPAT hypothermia test: ineffective
Norepinephrine uptake
  norepinephrine uptake inhibitory activity: highly selective norepinephrine uptake inhibitor
Serotonin uptake
  serotonin uptake inhibitory activity: only marginal
Monoamine oxidase (MAO)
  monoamine oxidase (MAO) inhibitory activity: devoid of monoamine oxidase (MAO) inhibitory activity
Dopamine uptake
  dopamine uptake inhibitory activity: no dopamine uptake inhibitory activity
[3]
  interaction with muscarinic cholinergic receptors: without showing any appreciable interaction
[4]
  patients judged minimally improved at CGI last assessment: 2
  patients judged much improved at CGI last assessment: 4
  patients judged very much improved at CGI last assessment: one
  patients unchanged at CGI last assessment: 3
